These are literature values, as cited in patent US8911424B2, “Methods and devices for preventing catheter related urinary tract infections” (Ethicon, Inc., priority 2011, dated 2014).

The conditions of this series: aqueous solubility.

`[Br][Ag]` [Silver Bromide]: the “Solubility (g/100 g H2O)” value was 0.000014 g/100 g H2O.
